Where two headings read alike, the source gives them in different places.

In one data set the test system is rat. The settings on record: cited from earlier work.
The nature of data set [1]: Presence or absence of pyrrolizidine alkaloid signals (UPLC-HRMS) in doped lemon, orange and eucalyptus essential oils after hydrodistillation. Type of data set: physicochemical. The settings on record: for signaux dans la phase organique recueillie après hydrodistillation: huiles essentielles de citron, d'orange et d'eucalyptus dopées jusqu'à 100 ppm, 2 h hydrodistillation, UPLC-HRMS/TOF; for profils UPLC-MS ciblés: presence in huile essentielle avec standards et distillée: huile essentielle de citron, likewise essences d'orange et d'eucalyptus (figure 1, figure 2). How it is done: (§1) Dans un ballon de 500 mL, on introduit 300 mL d'eau distillée, un barreau magnétique, quelques pierres ponces et une quantité pesée d'échantillon entre 15 et 30 g.
(§2) Le ballon est alors raccordé à un appareil de type Clevenger et placé dans un bain d'huile chauffant.
(§3) On ajoute 10 mL d'eau distillée et 4 à 5 mL de pentane afin de remplir le séparateur.
(§4) On ouvre l'arrivée d'eau pour le réfrigérant et on porte à reflux pendant deux heures.
(§5) On arrête alors le chauffage et on laisse décanter. La phase organique et la phase aqueuse décantent dans le séparateur et sont recueillies.
(§6) […]. Conditions HR-TOF-MS : Les analyses ont été effectuées sur un système Waters XEVO G2 TOF. Conditions de source ESI : tension capillaire : 0,5 kV, tension de cône : 45 V, cône d'extraction : 4 V, température de source : 120 °C, température de désolvatation : 400 °C, débit de gaz : 10 L/h, débit de gaz de désolvatation : 1200 L/h. Les analyses ont été effectuées en mode positif. Le spectromètre de masse a été étalonné avec du formiate de sodium pour une gamme de masse allant de 50 à 1200 Da. La Leucine-Enképhaline (lockmass) est le standard utilisé pour corriger les masses. Les deux masses caractéristiques de la Leucine-Enképhaline ont été vérifiées (278,1141; 556,2771). Les acquisitions ont été réalisées en mode MSE en utilisant l'argon comme gaz de collision. Fragmentation : Le mode MSE permet l'acquisition simultanée de spectres de masse à l'énergie de collision faible et élevée, le premier permettant d'obtenir un ion parent, le dernier de produire des ions fragments.
(§7) Après dilution des extraits d'huile essentielle dans du méthanol, les alcaloïdes pyrrolizidiniques sont chromatographiés par système RP-UPLC, en mode gradient d'élution, détectés et identifiés par spectrométrie de masse et quantifiés par une méthode d'étalonnage externe.
(§8) Dans une fiole jaugée de 20 mL, on pèse exactement 1 g (Pe) de l'échantillon et on ajuste avec du méthanol. La solution est homogénéisée pendant 3 min avec un bain à ultrasons, puis filtrée à l'aide d'une seringue sur un filtre en PTFE de 0,25 µm, puis transférée dans un flacon d'injection.
Afin de démontrer le principe de l'invention, une étude quantitative destinée à montrer la présence ou l'absence d'alcaloïdes pyrrolizidiniques dans des échantillons d'huile essentielle enrichis en alcaloïdes pyrrolizidiniques a été réalisée avant et après hydrodistillation.
Dans cette étude, on a utilisé des alcaloïdes pyrrolizidiniques disponibles commercialement et représentant deux classes précédemment décrites de type II et IV, à savoir : alcaloïde type cyclique (classe la plus représentée) pour la sénécionine, sénécionine-N-oxyde [13268-67-2], rétrorsine, rétrorsine-N-oxyde [15503-86-3], jacobine [3870-67-3], jacobine-N-oxyde [38710-25-7], sénéciphylline, sénéciphylline-N-oxyde [38710-26-8], et alcaloïde type mono-ester pour la lycopsamine [10285-07-1], lycopsamine-N-oxyde [95462-15-0], intermédine [10285-06-0], intermédine-N-oxyde [95462-14-9].
(§9) Trois huiles essentielles de citron, d'orange et d'eucalyptus, dopées jusqu'à 100 ppm de chacun des alcaloïdes pyrrolizidiniques et de leurs oxydes respectifs, ont été hydrodistillées séparément pendant deux heures selon le protocole décrit à l'exemple 1. L'expérimentation est réalisée en duplicat.
(§10) Avant et après hydrodistillation, les phases organique et aqueuse sont séparées et injectées en UPLC-HRMS/TOF.

Data set [2] in a line: Hydrodistillation of lemon essential oil doped with pyrrolizidine alkaloids; alkaloids assayed in distillate and aqueous phase by UPLC-HRMS/TOF. Type of data set: physicochemical. The following applies: for φ Aqueuse (résidu de distillation) CT [ppm]: Concentration théorique; for φ Aqueuse (résidu de distillation) C [ppm] / φ Organique (distillat) C [ppm]: after 2 h hydrodistillation; for φ Organique (distillat) C [ppm]: LOQ : 2 ppb. How it is done:
as §1, §2, §3, §4, §5, §6, §7
Des solutions standards d'alcaloïdes pyrrolizidiniques sont préparées comme suit : Dans une fiole jaugée de 100 mL (Vf), on pèse exactement 10 mg (Ms) des substances étalons et on ajuste avec du méthanol. Les solutions sont homogénéisées avec un bain à ultrasons pendant 3 min.
La concentration de la solution standard est donnée par l'équation suivante : C (mg/mL) = (Ms×Pu)/(100×Vf) [formula] • Ms = Poids de la substance standard • Pu = Pureté de la substance étalon en pourcentage
Ensuite, cette solution mère est diluée jusqu'à obtenir les concentrations appropriées pour la sensibilité du détecteur.
as §8
Si nécessaire, cette solution doit être successivement diluée pour tomber dans une plage de linéarité appropriée du détecteur.
as §9, §10

[3] abbreviates: administrés régulièrement par voie orale.
[4] abbreviates: Tableau 3, Huile essentielle de Citron dopée, (duplicate 2).
Where [5] appears, read: Tableau 3, Huile essentielle de Citron dopée, duplicate 1.
The mark [6] stands for this setting: Tableau 4, Huile essentielle de Citron dopée (as titled), (duplicate 2).
Setting [7] is: Tableau 4, Huile essentielle de Citron dopée (as titled), duplicate 1.

`C[C@H]1C(=O)O[C@@H]2CCN3CC=C(COC(=O)[C@](C)(O)[C@]1(C)O)[C@H]23` [monocrotaline]: the “tumeurs hépatiques” value in the data set with rat (in vivo) is “provoquer des tumeurs hépatiques”.

`C[C@@H]1C[C@@]2(O[C@H]2C)C(=O)O[C@@H]2CC[N+]3([O-])CC=C(COC(=O)[C@]1(C)O)[C@H]23` (stereo partly drawn) [jacobine-N-oxyde]: the “signaux dans la phase organique recueillie après hydrodistillation” value in data set [1] is “absence des signaux”.

`C/C=C(\C)C(=O)O[C@@H]1CCN2CC=C(COC(=O)[C@](O)(C(C)C)[C@H](C)O)[C@H]12` [symphytine]: the “tumeurs hépatiques” value in the data set on rat (setting [3]) is reported as “provoquer des tumeurs hépatiques”.

As for `C[C@@H]1C[C@@]2(O[C@H]2C)C(=O)O[C@@H]2CCN3CC=C(COC(=O)[C@]1(C)O)[C@H]23` [jacobine], in data set [1], the “signaux dans la phase organique recueillie après hydrodistillation” value is “absence des signaux”.

On to `C=C1C/C(=C/C)C(=O)O[C@@H]2CCN3CC=C(COC(=O)[C@]1(C)O)[C@H]23` [séneciphylline, sénéciphylline], for which the “signaux dans la phase organique recueillie après hydrodistillation” value in data set [1] is recorded as “absence des signaux”.

As to `C/C=C1/C[C@@H](C)[C@@](C)(O)C(=O)OC/C2=C/CN(C)CC[C@@H](OC1=O)C2=O` [senkirkine], in the data set on rat (setting [3]), the “tumeurs hépatiques” value is “provoquer des tumeurs hépatiques”.

On to `C/C=C1/C[C@@H](C)[C@](O)(CO)C(=O)OCC2=CC[N@@+]3([O-])CC[C@@H](OC1=O)[C@@H]23` [Rétrorsine-N-oxyde], for which, in data set [2] (setting [4]), the “φ Aqueuse (résidu de distillation) CT [ppm]” value is recorded as 0,621 ppm, the “φ Aqueuse (résidu de distillation) C [ppm]” value is given as 0,605 ppm and the “φ Organique (distillat) C [ppm]” value is recorded as “< LoQ”. For the same compound, in data set [2] (setting [5]), the “φ Aqueuse (résidu de distillation) CT [ppm]” value is reported as 0,662 ppm, the “φ Aqueuse (résidu de distillation) C [ppm]” value is 0,691 ppm and the “φ Organique (distillat) C [ppm]” value is recorded as “< LoQ”. Also, in data set [2] (setting [6]), the “φ Aqueuse (résidu de distillation) CT [ppm]” value was determined as 0.593 ppm, the “φ Aqueuse (résidu de distillation) C [ppm]” value amounted to 0.612 ppm and the “φ Organique (distillat) C [ppm]” value is given as “< LoQ”. In addition, in data set [2] (setting [7]), the “φ Aqueuse (résidu de distillation) CT [ppm]” value was 0.457 ppm, the “φ Aqueuse (résidu de distillation) C [ppm]” value is listed as 0.678 ppm and the “φ Organique (distillat) C [ppm]” value is “< LoQ”. In addition, in data set [1], the “profils UPLC-MS ciblés: presence in huile essentielle avec standards et distillée” value (shortened to “profils UPLC-MS ciblés: presence”) is reported as “absentes” and the “signaux dans la phase organique recueillie après hydrodistillation” value is on record as “absence des signaux”.

For `CC(C)[C@](O)(C(=O)OCC1=CCN2CC[C@@H](O)[C@@H]12)[C@@H](C)O` (stereo in doubt) [Lycopsamine], in data set [2] (setting [4]), the “φ Aqueuse (résidu de distillation) CT [ppm]” value is on record as 0,626 ppm, the “φ Aqueuse (résidu de distillation) C [ppm]” value is on record as 0,698 ppm and the “φ Organique (distillat) C [ppm]” value is recorded as “< LoQ”. For the same compound, in data set [2] (setting [5]), the “φ Aqueuse (résidu de distillation) CT [ppm]” value is 0,656 ppm, the “φ Aqueuse (résidu de distillation) C [ppm]” value is 0,678 ppm and the “φ Organique (distillat) C [ppm]” value was “< LoQ”. Moreover, in data set [2] (setting [6]), the “φ Aqueuse (résidu de distillation) CT [ppm]” value is 0.597 ppm, the “φ Aqueuse (résidu de distillation) C [ppm]” value was determined as 0.621 ppm and the “φ Organique (distillat) C [ppm]” value is recorded as “< LoQ”. In data set [2] (setting [7]), the “φ Aqueuse (résidu de distillation) CT [ppm]” value is reported as 0.550 ppm, the “φ Aqueuse (résidu de distillation) C [ppm]” value is 0.588 ppm and the “φ Organique (distillat) C [ppm]” value is listed as “< LoQ”. In data set [1], the “profils UPLC-MS ciblés: presence” value is recorded as “absentes” and the “signaux dans la phase organique recueillie après hydrodistillation” value is “absence des signaux”.

Turning to `CC(C)[C@@](O)(C(=O)OCC1=CC[N+]2([O-])CC[C@@H](O)[C@@H]12)[C@H](C)O` (stereo partly drawn) [Lycopsamine-N-oxyde], in data set [2] (setting [6]), the “φ Aqueuse (résidu de distillation) CT [ppm]” value is on record as 0.030 ppm, the “φ Aqueuse (résidu de distillation) C [ppm]” value was determined as 0.027 ppm and the “φ Organique (distillat) C [ppm]” value was “< LoQ”. Besides, in data set [2] (setting [7]), the “φ Aqueuse (résidu de distillation) CT [ppm]” value turned out to be 0.028 ppm, the “φ Aqueuse (résidu de distillation) C [ppm]” value is given as 0.024 ppm and the “φ Organique (distillat) C [ppm]” value is recorded as “< LoQ”. Further, in data set [1], the “signaux dans la phase organique recueillie après hydrodistillation” value is “absence des signaux”.

Regarding `CC(C)[C@@](O)(C(=O)OCC1=CC[N+]2([O-])CC[C@@H](O)[C@@H]12)[C@@H](C)O` (stereo partly drawn) [intermédine-N-oxyde], in data set [1], the “signaux dans la phase organique recueillie après hydrodistillation” value is recorded as “absence des signaux”.

As for `C=C1C/C(=C/C)C(=O)O[C@@H]2CC[N+]3([O-])CC=C(COC(=O)[C@]1(C)O)[C@H]23` (stereo partly drawn) [séneciphylline-N-oxyde, sénéciphylline-N-oxyde], the “signaux dans la phase organique recueillie après hydrodistillation” value in data set [1] is given as “absence des signaux”.

For the compound `C/C=C1\C[C@@H](C)[C@](O)(CO)C(=O)OCC2=CCN3CC[C@@H](OC1=O)[C@@H]23` [Rétrorsine], in the data set with rat (setting [3]), the “tumeurs hépatiques” value is recorded as “provoquer des tumeurs hépatiques”. Moreover, in data set [2] (setting [4]), the “φ Aqueuse (résidu de distillation) CT [ppm]” value is reported as 0,868 ppm, the “φ Aqueuse (résidu de distillation) C [ppm]” value is 0,839 ppm and the “φ Organique (distillat) C [ppm]” value is reported as “< LoQ”. Also, in data set [2] (setting [5]), the “φ Aqueuse (résidu de distillation) CT [ppm]” value is 0,806 ppm, the “φ Aqueuse (résidu de distillation) C [ppm]” value is listed as 0,810 ppm and the “φ Organique (distillat) C [ppm]” value is reported as “< LoQ”. Besides, in data set [2] (setting [6]), the “φ Aqueuse (résidu de distillation) CT [ppm]” value is on record as 0.828 ppm, the “φ Aqueuse (résidu de distillation) C [ppm]” value was 0.711 ppm and the “φ Organique (distillat) C [ppm]” value is reported as “< LoQ”. In data set [2] (setting [7]), the “φ Aqueuse (résidu de distillation) CT [ppm]” value is 0.797 ppm, the “φ Aqueuse (résidu de distillation) C [ppm]” value is 0.663 ppm and the “φ Organique (distillat) C [ppm]” value was “< LoQ”. For the same compound, in data set [1], the “profils UPLC-MS ciblés: presence” value is “absentes” and the “signaux dans la phase organique recueillie après hydrodistillation” value is “absence des signaux”.

In the case of `C/C=C1/C[C@@H](C)[C@@](C)(O)C(=O)OCC2=CC[N+]3([O-])CC[C@@H](OC1=O)[C@@H]23` (stereo partly drawn) [sénécionine-N-oxyde], the “signaux dans la phase organique recueillie après hydrodistillation” value in data set [1] is listed as “absence des signaux”.

Regarding `C/C=C1/C[C@@H](C)[C@@](C)(O)C(=O)OCC2=CCN3CC[C@@H](OC1=O)[C@@H]23` [sénécionine], the “signaux dans la phase organique recueillie après hydrodistillation” value in data set [1] is recorded as “absence des signaux”.

The record behind these values is EP3922633B1, “METHOD FOR EXTRACTING PYRROLIZIDINE ALKALOIDS” (priority 2020, dated 2021).
